Holding throughout (type): cell-based
The target in one test is T1, human TLR7 (Homo sapiens, UniProt Q9NYK1).
T1 construct: host or cells: HEK-Blue cells (HEK293-derived reporter line)
T1 sequence (Q9NYK1 27-1049): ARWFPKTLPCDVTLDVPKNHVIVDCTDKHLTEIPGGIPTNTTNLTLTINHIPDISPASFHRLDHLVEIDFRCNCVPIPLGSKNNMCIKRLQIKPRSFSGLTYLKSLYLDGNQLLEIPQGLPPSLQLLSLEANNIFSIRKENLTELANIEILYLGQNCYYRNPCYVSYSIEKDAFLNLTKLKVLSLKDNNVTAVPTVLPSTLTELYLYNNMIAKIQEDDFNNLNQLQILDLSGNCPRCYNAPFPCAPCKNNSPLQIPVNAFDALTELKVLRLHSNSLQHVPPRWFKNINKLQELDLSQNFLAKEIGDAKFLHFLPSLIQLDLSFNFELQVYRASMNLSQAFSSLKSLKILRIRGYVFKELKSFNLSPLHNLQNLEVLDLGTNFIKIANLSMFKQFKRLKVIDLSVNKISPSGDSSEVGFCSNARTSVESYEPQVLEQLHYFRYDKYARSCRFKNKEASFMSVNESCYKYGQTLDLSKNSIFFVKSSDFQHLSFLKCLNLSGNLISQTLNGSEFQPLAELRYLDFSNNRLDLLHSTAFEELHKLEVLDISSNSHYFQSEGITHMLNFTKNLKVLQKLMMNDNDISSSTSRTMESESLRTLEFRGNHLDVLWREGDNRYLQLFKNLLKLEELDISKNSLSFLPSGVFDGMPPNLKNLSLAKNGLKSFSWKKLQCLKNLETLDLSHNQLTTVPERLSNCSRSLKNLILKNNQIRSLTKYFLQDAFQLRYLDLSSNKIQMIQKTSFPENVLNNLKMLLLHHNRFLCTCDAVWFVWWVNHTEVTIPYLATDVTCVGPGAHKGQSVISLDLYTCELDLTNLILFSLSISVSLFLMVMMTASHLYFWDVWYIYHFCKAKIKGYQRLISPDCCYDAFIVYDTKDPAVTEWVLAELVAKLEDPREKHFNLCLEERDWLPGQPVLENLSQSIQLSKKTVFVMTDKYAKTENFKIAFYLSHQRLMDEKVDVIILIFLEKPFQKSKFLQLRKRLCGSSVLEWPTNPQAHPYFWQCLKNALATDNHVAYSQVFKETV
The test can be described thus: TLR7 inhibition reporter assay (HEK-Blue cells, SEAP reporter, gardiquimod stimulation). The following applies: HEK-Blue cells overexpressing human TLR7, SEAP reporter, gardiquimod 7.5 μM. The gist of the method: (§1)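 Read-out is SEAP activity in HEK-Blue detection medium after 22 h at 37 °C, converted to percent inhibition against agonist-plus-DMSO and reference-inhibitor controls. Cells saw compound (0.05 nM–50 μM, 30 min, room temperature) before gardiquimod 7.5 μM, R848 15.9 μM or ODN2006 5 nM for TLR7, TLR8 and TLR9, respectively.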
(A reporter such as luciferase makes a cellular process visible.)

For a further test, the target named is T2, human TLR8 (Homo sapiens, UniProt Q9NR97).
T2 construct: host or cells: HEK-Blue cells (HEK293-derived reporter line)
T2 sequence (Q9NR97 27-1041): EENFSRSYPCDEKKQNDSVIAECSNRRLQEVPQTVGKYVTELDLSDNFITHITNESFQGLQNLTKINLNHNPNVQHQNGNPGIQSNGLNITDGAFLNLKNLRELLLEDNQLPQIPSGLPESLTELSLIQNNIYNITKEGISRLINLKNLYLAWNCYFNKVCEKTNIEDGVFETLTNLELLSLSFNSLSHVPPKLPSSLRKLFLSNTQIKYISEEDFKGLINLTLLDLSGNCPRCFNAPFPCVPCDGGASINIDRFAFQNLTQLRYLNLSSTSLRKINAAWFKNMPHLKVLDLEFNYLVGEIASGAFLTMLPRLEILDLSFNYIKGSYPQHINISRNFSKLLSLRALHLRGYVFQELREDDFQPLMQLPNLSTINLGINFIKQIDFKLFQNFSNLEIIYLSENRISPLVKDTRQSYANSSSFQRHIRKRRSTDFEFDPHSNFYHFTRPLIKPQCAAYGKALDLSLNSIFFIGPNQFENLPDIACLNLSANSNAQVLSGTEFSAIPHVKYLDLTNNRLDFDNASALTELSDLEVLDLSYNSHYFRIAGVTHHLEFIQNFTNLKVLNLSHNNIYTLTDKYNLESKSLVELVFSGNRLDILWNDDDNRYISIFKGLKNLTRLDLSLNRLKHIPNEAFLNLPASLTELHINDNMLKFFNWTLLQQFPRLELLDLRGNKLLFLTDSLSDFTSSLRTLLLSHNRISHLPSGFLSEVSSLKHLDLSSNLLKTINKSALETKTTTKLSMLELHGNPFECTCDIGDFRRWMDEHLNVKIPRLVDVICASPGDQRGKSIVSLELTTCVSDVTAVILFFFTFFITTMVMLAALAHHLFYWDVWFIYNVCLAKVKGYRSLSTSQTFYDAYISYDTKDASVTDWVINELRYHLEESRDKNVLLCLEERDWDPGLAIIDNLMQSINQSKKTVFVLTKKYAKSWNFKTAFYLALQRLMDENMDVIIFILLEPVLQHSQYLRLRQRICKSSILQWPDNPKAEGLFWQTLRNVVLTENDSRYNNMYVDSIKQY
The test can be described thus: TLR8 inhibition reporter assay (HEK-Blue cells, SEAP reporter, R848 stimulation). The following applies: HEK-Blue cells overexpressing human TLR8, SEAP reporter, R848 15.9 μM. The gist of the method: as §1

For another test, the target named is T3, human TLR9 (Homo sapiens, UniProt Q9NR96).
T3 construct: host or cells: HEK-Blue cells (HEK293-derived reporter line)
T3 sequence (Q9NR96 26-1032): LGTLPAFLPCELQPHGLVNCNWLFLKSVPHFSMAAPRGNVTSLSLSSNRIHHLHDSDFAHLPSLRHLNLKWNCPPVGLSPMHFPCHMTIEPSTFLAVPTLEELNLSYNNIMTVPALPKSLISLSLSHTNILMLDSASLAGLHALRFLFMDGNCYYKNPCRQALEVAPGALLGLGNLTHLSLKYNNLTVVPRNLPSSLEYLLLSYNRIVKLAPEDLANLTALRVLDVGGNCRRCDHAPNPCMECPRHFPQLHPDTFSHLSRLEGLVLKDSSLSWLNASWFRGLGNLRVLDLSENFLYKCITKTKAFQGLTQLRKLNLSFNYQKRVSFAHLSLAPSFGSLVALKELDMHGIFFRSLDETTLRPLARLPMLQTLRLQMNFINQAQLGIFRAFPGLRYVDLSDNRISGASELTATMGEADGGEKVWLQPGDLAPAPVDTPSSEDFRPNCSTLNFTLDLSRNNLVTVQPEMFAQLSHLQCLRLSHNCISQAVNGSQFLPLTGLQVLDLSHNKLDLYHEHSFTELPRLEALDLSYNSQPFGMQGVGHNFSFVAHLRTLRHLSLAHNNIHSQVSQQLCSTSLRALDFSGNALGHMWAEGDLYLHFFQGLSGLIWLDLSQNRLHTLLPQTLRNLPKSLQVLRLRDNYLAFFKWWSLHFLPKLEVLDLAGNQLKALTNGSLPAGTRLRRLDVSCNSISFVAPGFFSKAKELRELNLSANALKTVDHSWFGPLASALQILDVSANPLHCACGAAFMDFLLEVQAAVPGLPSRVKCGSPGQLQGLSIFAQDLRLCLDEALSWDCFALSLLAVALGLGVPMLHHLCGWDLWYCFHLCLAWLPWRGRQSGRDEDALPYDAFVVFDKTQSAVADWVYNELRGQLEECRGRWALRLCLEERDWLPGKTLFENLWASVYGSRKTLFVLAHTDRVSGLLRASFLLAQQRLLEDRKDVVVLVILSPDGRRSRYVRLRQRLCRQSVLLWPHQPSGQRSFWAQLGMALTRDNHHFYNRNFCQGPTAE
The test can be described thus: TLR9 inhibition reporter assay (HEK-Blue cells, SEAP reporter, ODN2006 stimulation). The following applies: HEK-Blue cells overexpressing human TLR9, SEAP reporter, ODN2006 5 nM. In short, it runs like this: as §1

A word on the IC50: it is the concentration at which inhibition is half-maximal. A higher IC50 goes with weaker potency in that assay. For `CC(C)c1c(-c2ncnn3cccc23)[nH]c2ccc(C3CCNCC3)cc12` [Example 191, 4-(3-isopropyl-5-(piperidin-4-yl)-1H-indol-2-yl)pyrrolo[2,1-f][1,2,4]triazine], the IC50 against human TLR7, against human TLR8 and against human TLR9 was 100 to 1000 nM each time.
For the compound `CNCC(=O)N1CCC(c2ccc3[nH]c(-c4cc(C)nc5ccccc45)c(C(C)C)c3c2)CC1` [Example 534, 1-(4-(3-isopropyl-2-(2-methylquinolin-4-yl)-1H-indol-5-yl)piperidin-1-yl)-2-(methylamino)ethan-1-one], the IC50 at human TLR7 was below 100 nM; against human TLR8, below 100 nM; at human TLR9, 1000 to 50000 nM.
For `CNC(=O)CN1CCC(c2ccc3[nH]c(-c4cnc5ncnn5c4)c(C(C)C)c3c2)CC1` [Example 423, 2-(4-(2-([1,2,4]triazolo[1,5-a]pyrimidin-6-yl)-3-isopropyl-1H-indol-5-yl)piperidin-1-yl)-N-methylacetamide], the IC50 was below 100 nM against human TLR7, below 100 nM on human TLR8 and 1000 to 50000 nM against human TLR9.
As to `CCc1c(-c2ccc3[nH]c(=O)[nH]c3c2)[nH]c2ccc(C3CCNCC3)cc12` [Example 166, 5-(3-ethyl-5-(piperidin-4-yl)-1H-indol-2-yl)-1,3-dihydro-2H-benzo[d]imidazol-2-one], the IC50 on human TLR7 lay in the range of 1000 to 50000 nM; at human TLR8 it was 100 to 1000 nM; against human TLR9, 1000 to 50000 nM.
Consider `CC(C)c1c(-c2cnc3[nH]ccc3c2)[nH]c2ccc(C3CCN(C(=O)CN(C)C)CC3)cc12` [Example 563, 2-(dimethylamino)-1-(4-(3-isopropyl-2-(1H-pyrrolo[2,3-b]pyridin-5-yl)-1H-indol-5-yl)piperidin-1-yl)ethan-1-one], for which the figures for the IC50 at human TLR7, against human TLR8 and on human TLR9 were 100 to 1000 nM, 1000 to 50000 nM and 1000 to 50000 nM, respectively.
Consider `CCc1c(-c2ccnc3[nH]cnc23)[nH]c2ccc(C3CCNCC3)cc12` [Example 59, 7-(3-ethyl-5-(piperidin-4-yl)-1H-indol-2-yl)-3H-imidazo[4,5-b]pyridine], for which the IC50 is below 100 nM against human TLR7, below 100 nM against human TLR8 and 100 to 1000 nM against human TLR9.
Take `Cc1nc[nH]c1CN1CCC(c2ccc3[nH]c(-c4ccnc5[nH]ncc45)c(C(C)C)c3c2)CC1` [Example 864, 4-(3-isopropyl-5-(1-((4-methyl-1H-imidazol-5-yl)methyl)piperidin-4-yl)-1H-indol-2-yl)-1H-pyrazolo[3,4-b]pyridine]: the IC50 against human TLR7 is below 100 nM; at human TLR8, below 100 nM; against human TLR9, 100 to 1000 nM.
For the compound `CC(C)c1c(-c2c[nH]c3cnccc23)[nH]c2ccc(C3CCNCC3)cc12` [Example 15, 3-(3-isopropyl-5-(piperidin-4-yl)-1H-indol-2-yl)-1H-pyrrolo[2,3-c]pyridine], the IC50 lay within 100 to 1000 nM against human TLR7, 1000 to 50000 nM against human TLR8 and 100 to 1000 nM against human TLR9.
`FC(F)Cc1c(-c2ccn3ccnc3c2)[nH]c2ccc(C3CCNCC3)cc12` [Example 189, 7-(3-(2,2-difluoroethyl)-5-(piperidin-4-yl)-1H-indol-2-yl)imidazo[1,2-a]pyridine]: the IC50 at human TLR7 was below 100 nM; on human TLR8, 100 to 1000 nM; at human TLR9 it was below 100 nM.
For `CC(C)c1c(-c2ccc(C#N)c3ncccc23)[nH]c2ccc(C3CCNCC3)cc12` [Example 109, 5-(3-isopropyl-5-(piperidin-4-yl)-1H-indol-2-yl)quinoline-8-carbonitrile], the IC50 against human TLR7 is below 100 nM; on human TLR8, below 100 nM; on human TLR9 it was 100 to 1000 nM.
Consider `CC(C)c1c(-c2ccnc3[nH]ncc23)[nH]c2ccc(C3CCN(C4CCCNCC4)CC3)cc12` (stereo not drawn) [Example 828, 4-(5-(1-(azepan-4-yl)piperidin-4-yl)-3-isopropyl-1H-indol-2-yl)-1H-pyrazolo[3,4-b]pyridine], for which the figures for the IC50 against human TLR7, against human TLR8 and against human TLR9 were 1000 to 50000 nM, below 100 nM and 100 to 1000 nM, respectively.
The like results for `CC(C)c1c(-c2ccc3occc3c2)[nH]c2ccc(C3CCNCC3)cc12` [Example 67, 2-(benzofuran-5-yl)-3-isopropyl-5-(piperidin-4-yl)-1H-indole] were, in that order, 100 to 1000 nM, 100 to 1000 nM and 1000 to 50000 nM.
The corresponding values for `CC(C)c1c(-c2cc(CO)c3nccn3c2)[nH]c2ccc(C3CCN(CC(=O)N(C)C)CC3)cc12` [Example 329, 2-(4-(2-(8-(hydroxymethyl)imidazo [1,2-a]pyridin-6-yl)-3-isopropyl-1H-indol-5-yl)piperidin-1-yl)-N,N-dimethylacetamide] are below 100 nM, below 100 nM and 100 to 1000 nM.
The corresponding values for `CC(C)c1c(-c2ccn3nncc3c2)[nH]c2ccc(C3CCN(C4CCOCC4)CC3)cc12` [Example 701, 5-(3-isopropyl-5-(1-(tetrahydro-2H-pyran-4-yl)piperidin-4-yl)-1H-indol-2-yl)-[1,2,3]triazolo[1,5-a]pyridine] are below 100 nM, below 100 nM and 100 to 1000 nM.

The record behind these values is US11739098B2 (BRISTOL-MYERS SQUIBB COMPANY, priority 2017, dated 2023).
